According to PMC7867085, “In Vitro and In Vivo Antitumor Activity of Indolo[2,3-b] Quinolines, Natural Product Analogs from Neocryptolepine Alkaloid” (Molecules, 2021):

System: normal mice (liver homogenate)
Assay: Lipid peroxidation and antioxidant enzymes in liver homogenate of normal mice
Format: in vivo, Swiss female albino mice
Conditions: 100 mg/kg SC for 5 days
From the text: Measuring antioxidant enzyme levels and lipid peroxidation was utilized to evaluate the pharmacological effect of indoloquinoline derivatives. The study group was divided into two subgroups, normal mice and tumor-bearing mice. Each subgroup is further subdivided into two groups, one group received indoloquinoline derivatives, and the other group was marked as a placebo group.
The eradicated liver was double washed first, with ice-cold normal saline then, with cold 0.15 mol/L Tris-HCl buffer (pH 7.4). The clean organ was dried and weighed, and used to prepare a 10% w/v homogenate in 0.15 mol/L Tris-HCl buffer. A portion of the prepared homogenate was centrifuged at 1500 rpm for 15 min at 4 °C [47] and used for estimating lipid peroxidation, SOD [48] and CAT [49] analysis was carried out using the supernatant.

Row | Compound | CAT [KU/mg Tissue/s] | Lipid Peroxidation [nmol MDA/g Tissue] | SOD [U/g Tissue]
1 | Cn1c2nc3ccccc3c-2c(NCCc2c[nH]c3ccccc23)c2ccccc21 [Compound 6b, N-(2-(1H-Indol-3-yl)ethyl)-5-methyl-5H-indolo[2,3-b] Quinolin-11-amine] | 5.7 ± 0.31 | 247.96 ± 6.3 | 140.2 ± 1.9
2 | 5(5-Methyl-5H-indolo[2,3-b] quinolin-11-ylamino) Pyrimidine-2,4(1H,3H)-dione [Compound 6c] | 6.2 ± 0.30 | 251.68 ± 11.9 | 138.6 ± 6.0
3 | Cn1c2nc3ccccc3c-2c(Nc2ccc(Br)cc2F)c2ccccc21 [Compound 6a, N-(4-Bromo-2-fluorophenyl)-5-methyl-5H-indolo[2,3-b] Quinolin-11-amine] | 6.5 ± 0.39 | 252.1 ± 7.2 | 139.4 ± 2.9
4 | 5-Methyl-N-(4-methylpiperazin-1-yl)-5H-indolo[2,3-b] Quinolin-11-amine [Compound 6d] | 6.1 ± 0.20 | 248.69 ± 5.5 | 137.9 ± 3.9

System: splenic lymphocytes of normal mice
Assay: Splenic lymphocyte count in normal mice
Format: in vivo, Swiss female albino mice
Conditions: 100 mg/kg SC for 5 days
Protocol: The difference in the number of splenic lymphocytes between the study groups, including groups given indoloquinoline derivatives, control group, and groups with a tumor, were evaluated. Normal mice administered indoloquinoline derivatives at a dose of 100 mg/kg for 5 constitutive days subcutaneously reported statistical similarities with the untreated normal mice group regarding the count of splenic lymphocytes (Table 6).
(§1) Under sterile conditions, the spleens were eliminated, and the single cell suspension was made in RPMI 1640 medium. Splenic lymphocytes were purified as described earlier. Viable splenic lymphocytes were counted in a hemocytometer by trypan blue exclusion test and used for further analysis.
(§2) During the study, female Swiss albino mice (normal, treated, and untreated) were anesthetized. Under sterile conditions, after scattering 70% alcohol on the abdominal region, the spleen was removed and then injected with a minor amount of PBS. Spleen was pressed across the fine mesh of the tissue grinder. After centrifuging the produced cell suspension at 1000 rpm for 5 min, the supernatant was discarded, and the cells were washed at room temperature by centrifugation in PBS twice. Trypan blue extrusion method was used to evaluate cell viability, and a phase-contrast microscope was used for cell counting. The experiment was done in tripartite.

Row | Compound | Splenic Lymphocyte Number
5 | Cn1c2nc3ccccc3c-2c(NCCc2c[nH]c3ccccc23)c2ccccc21 [Compound 6b, N-(2-(1H-Indol-3-yl)ethyl)-5-methyl-5H-indolo[2,3-b] Quinolin-11-amine] | 12.97 ± 0.65 10^6/mL
6 | 5(5-Methyl-5H-indolo[2,3-b] quinolin-11-ylamino) Pyrimidine-2,4(1H,3H)-dione [Compound 6c] | 13.29 ± 1.12 10^6/mL
7 | Cn1c2nc3ccccc3c-2c(Nc2ccc(Br)cc2F)c2ccccc21 [Compound 6a, N-(4-Bromo-2-fluorophenyl)-5-methyl-5H-indolo[2,3-b] Quinolin-11-amine] | 13.3 ± 1.08 10^6/mL
8 | 5-Methyl-N-(4-methylpiperazin-1-yl)-5H-indolo[2,3-b] Quinolin-11-amine [Compound 6d] | 12.8 ± 0.04 10^6/mL

System: splenic lymphocytes of EAC bearing mice
Assay: Splenic lymphocyte count in EAC bearing mice
Format: in vivo, Swiss female albino mice
Conditions: 100 mg/kg SC for 5 days
Protocol: This reduction is reconfirming the reported fact that tumor causes massive depletion in immune cell numbers. Table 7 shown the reduced splenic lymphocyte results were a reaffirmation that cancer disabled normal lymphocyte development. The effective dose of indoloquinoline analogs, given throughout this study; 100 mg/kg for 5 constitutive days subcutaneously, reported an increase in the spleen cell number providing evidence that they protect the lymphoid organ of mice with tumor as illustrated in (Table 7).
as §1, §2

Row | Compound | Splenic Lymphocyte Number | increase in lymphocytic count [%]
9 | Cn1c2nc3ccccc3c-2c(NCCc2c[nH]c3ccccc23)c2ccccc21 [Compound 6b, N-(2-(1H-Indol-3-yl)ethyl)-5-methyl-5H-indolo[2,3-b] Quinolin-11-amine] | 14.8 ± 1.22 * 10^6/mL | 300
10 | 5(5-Methyl-5H-indolo[2,3-b] quinolin-11-ylamino) Pyrimidine-2,4(1H,3H)-dione [Compound 6c] | 17.0 ± 0.58 * 10^6/mL | 359.5
11 | Cn1c2nc3ccccc3c-2c(Nc2ccc(Br)cc2F)c2ccccc21 [Compound 6a, N-(4-Bromo-2-fluorophenyl)-5-methyl-5H-indolo[2,3-b] Quinolin-11-amine] | 20.0 ± 0.73 * 10^6/mL | 440.5
12 | 5-Methyl-N-(4-methylpiperazin-1-yl)-5H-indolo[2,3-b] Quinolin-11-amine [Compound 6d] | 17.0 ± 0.61 * 10^6/mL | 359.5

System: EAC cells
Assay: Flow cytometric analysis of cell cycle distribution of EAC cells from treated mice
Format: in vivo
Conditions: EAC bearing mice, 100 mg/kg for 5 days
From the text: Flow cytometry is a technique that gives a clue to the mechanism by which cytotoxic agents affect the cell cycle by sorting and analyzing cells based on their content of DNA. Flow cytometry was used to further evaluate the effects of the indoloquinoline compounds modes-of-action to the cellular level, and we extended our studies on the cell cycle effects. To know whether cell cycle changes were aligned with the inhibition of cell growth, the cell cycle phase distribution was examined via flow cytometry. The cell cycle was analyzed in EAC-bearing mice treated with indoloquinoline analogs 6a, 6b, 6c and 6d (at a dose of 100 mg/kg for 5 constitutive days).
Flow cytometry was used to calculate the percentage of cells in each phase of the cell cycle in both positive control (exposed to 0.3% DMSO) and treated cells, results illustrated in (Table 10 and Figure 2). The influence of indoloquinoline derivatives on EAC cells indicated noticeable cell cycle specificity. In comparison with the positive control group, an appreciable change in the cell cycle occurred in giving the studied compounds. The sub-G1 population indicated apoptotic-associated chromatin degradation.
Fresh tumor tissue specimens from treated and untreated groups were transported to our laboratory in isotonic saline. The specimens were prepared following these steps: • The material was washed with isotone tris EDTA buffer. Then, the cell suspension was centrifuged at 1800 rpm for 10 min; the supernatant was then separated; • The cell is then fixed in ice-cold 96–100% ethanol (BDH) in approximately 1 mL for each sample; • Two milliliters of phosphate buffer solution (PBS) were used to wash the sample, which was recentrifuged at 1500 rpm for 5 min then the supernatant was thrown away; • Granules of the Tumor cells were put back into suspension using 200–500 µL of PBS. Into polystyrene tube, 100 µL of the suspension was transferred and then stained with 1.5 mL of propidium iodide. The tube is kept at 4 °C in a dark place for one hour; • The sample was run in the flow cytometer within 30 min after the addition of propidium iodide.
The flow cytometer was carried out with FACS caliber flow cytometer (Becton Dickinson, Sunnyvale, CA, USA) equipped with a compact air cocked low-power 15 m watt argon ion laser beam (488 nm). The average number of evaluated nuclei per specimen 20,000, and the number of nuclei scanned was 120 per second. DNA histogram derived from flow cytometry was obtained with a computer program for Dean and Jett’s mathematical analysis. Data analysis was conducted using DNA analysis program MPDFIT (Verity Software House, Inc. Box 247, Topsham, ME 04086 USA, version: 2.0, power Mac with 131,072 KB Registration No.: 42000960827-16193213 Date made: 16 September 1996). This software calculated the CV around the G0/G1 peak and the percentage of cells in each phase (G0/G1, S and G2/M) of the DNA cell cycle for each sample.

Row | Compound | increase of G0/G1 cell population relative to positive control [%] | increase of G2/M fraction relative to positive control [%] | increase of sub-G1 group as compared to control [%] | reduction of S-phase fraction relative to positive control | increase of cells in S-phase relative to positive control [%] | reduction of G0/G1 fraction relative to positive control | reduction of G2/M fraction relative to positive control [%]
13 | Cn1c2nc3ccccc3c-2c(NCCc2c[nH]c3ccccc23)c2ccccc21 [Compound 6b, N-(2-(1H-Indol-3-yl)ethyl)-5-methyl-5H-indolo[2,3-b] Quinolin-11-amine] | 2 | 26.2 | 1452 | about 70.3% |  |  | 
14 | 5(5-Methyl-5H-indolo[2,3-b] quinolin-11-ylamino) Pyrimidine-2,4(1H,3H)-dione [Compound 6c] |  | ~269.5 | 683 |  | ~411.3 | about 95.7% | 
15 | Cn1c2nc3ccccc3c-2c(Nc2ccc(Br)cc2F)c2ccccc21 [Compound 6a, N-(4-Bromo-2-fluorophenyl)-5-methyl-5H-indolo[2,3-b] Quinolin-11-amine] | 17.4 |  | 106 | about 35.3% |  |  | 69.7
16 | 5-Methyl-N-(4-methylpiperazin-1-yl)-5H-indolo[2,3-b] Quinolin-11-amine [Compound 6d] |  | 263.3 | 975 | 56.6% |  | 46% | 

Same assay, conditions: percentage of cells; EAC bearing mice, 100 mg/kg for 5 days

Row | Compound | Apoptotic Cells (sub-G1) | Non-Apoptotic Cells G0/G1 | Non-Apoptotic Cells G2/M | Non-Apoptotic Cells S
17 | Cn1c2nc3ccccc3c-2c(NCCc2c[nH]c3ccccc23)c2ccccc21 [Compound 6b, N-(2-(1H-Indol-3-yl)ethyl)-5-methyl-5H-indolo[2,3-b] Quinolin-11-amine] | 24.36 ± 0.01 | 78.44 ± 0.04 | 19.21 ± 0.09 | 2.35 ± 0.13
18 | 5(5-Methyl-5H-indolo[2,3-b] quinolin-11-ylamino) Pyrimidine-2,4(1H,3H)-dione [Compound 6c] | 12.30 ± 0.15 | 3.30 ± 0.15 | 56.20 ± 0.1 | 40.50 ± 2.41
19 | Cn1c2nc3ccccc3c-2c(Nc2ccc(Br)cc2F)c2ccccc21 [Compound 6a, N-(4-Bromo-2-fluorophenyl)-5-methyl-5H-indolo[2,3-b] Quinolin-11-amine] | 3.23 ± 0.01 | 90.27 ± 6.35 | 4.61 ± 0.6 | 5.12 ± 0.36
20 | 5-Methyl-N-(4-methylpiperazin-1-yl)-5H-indolo[2,3-b] Quinolin-11-amine [Compound 6d] | 16.88 ± 0.6 | 41.30 ± 0.31 | 55.26 ± 0.06 | 3.44 ± 0.27

System: liver
Assay: Histopathological examination of liver sections (H and E)
Format: in vivo
Conditions: 5 days after subcutaneous injection, H and E
From the text: It is well known that the vital organ enables the human body to get rid of toxins, as organic xenobiotics in the liver. Tissue changes in the liver are linked with histological abnormalities. Possible unwanted effects of the Indoloquinolines were checked in the mice group that received the compound; 5 days after subcutaneous injection of the compounds, tumors and livers were fixed in 10% neutral buffered formalin solution and embedded in paraffin. Sections, […], were stained using hematoxylin and eosin (H and E).
Each tumor or liver sample for each mouse was separated and kept in 10% formalin solution and dehydrated in a graded alcohol series. Each specimen was treated with xylene and then inserted in paraffin blocks. The specimen was cut into sections, the thickness of each section is five-micron, hematoxylin, and eosin (H and E) were added for staining. The stained liver specimen was used to assess the degree of degradation and necrosis using a reported scaling system; the scaling system use numbers from 0 to 3 to reflect necrosis severity. Starting from 0, which indicates no necrosis and moves to mild, moderate, and severe necrosis indicated by 1, 2, and 3, respectively. Mild and moderate stages are defined as focal and multifocal necrosis or degradation of hepatocytes, respectively, while severe is characterized by local immense, spread out necrosis or damaged liver cells. Tumor specimen stained with H and E were used to evaluate the severity and percentage of necrosis by the same previously mentioned scaling system.

Row | Compound | necrosis of liver cells
21 | Cn1c2nc3ccccc3c-2c(NCCc2c[nH]c3ccccc23)c2ccccc21 [Compound 6b, N-(2-(1H-Indol-3-yl)ethyl)-5-methyl-5H-indolo[2,3-b] Quinolin-11-amine] | did not cause necrosis to liver cells
22 | Cn1c2nc3ccccc3c-2c(Nc2ccc(Br)cc2F)c2ccccc21 [Compound 6a, N-(4-Bromo-2-fluorophenyl)-5-methyl-5H-indolo[2,3-b] Quinolin-11-amine] | did not cause necrosis to liver cells

Same assay, conditions: mice treated with compound, H and E, Figure 5

Row | Compound | liver degenerative changes (histopathology)
23 | Cn1c2nc3ccccc3c-2c(NCCc2c[nH]c3ccccc23)c2ccccc21 [Compound 6b, N-(2-(1H-Indol-3-yl)ethyl)-5-methyl-5H-indolo[2,3-b] Quinolin-11-amine] | mild diffuse degenerative changes, mild congestion, and scattered lymphocytes
24 | Cn1c2nc3ccccc3c-2c(Nc2ccc(Br)cc2F)c2ccccc21 [Compound 6a, N-(4-Bromo-2-fluorophenyl)-5-methyl-5H-indolo[2,3-b] Quinolin-11-amine] | mild degenerative changes

Same assay, conditions: mouse, in vivo, sc

Row | Compound | necrosis of liver cells
25 | 5(5-Methyl-5H-indolo[2,3-b] quinolin-11-ylamino) Pyrimidine-2,4(1H,3H)-dione [Compound 6c] | did not cause necrosis to liver cells
26 | 5-Methyl-N-(4-methylpiperazin-1-yl)-5H-indolo[2,3-b] Quinolin-11-amine [Compound 6d] | did not cause necrosis to liver cells
